Assay results taken from article PMC2685987, “Integrating Statistical Predictions and Experimental Verifications for Enhancing Protein-Chemical Interaction Predictions in Virtual Screening” (PLoS Computational Biology, 2009).
pIC50: −log10 of the molar value.

Biological target: T1, MBP-ARC (Maltose Binding Protein tagged Androgen Receptor C-termini) (Homo sapiens, UniProt P10275)
T1 construct: made in house; host or cells: E. coli DH5a
T1 sequence (P10275 609-919): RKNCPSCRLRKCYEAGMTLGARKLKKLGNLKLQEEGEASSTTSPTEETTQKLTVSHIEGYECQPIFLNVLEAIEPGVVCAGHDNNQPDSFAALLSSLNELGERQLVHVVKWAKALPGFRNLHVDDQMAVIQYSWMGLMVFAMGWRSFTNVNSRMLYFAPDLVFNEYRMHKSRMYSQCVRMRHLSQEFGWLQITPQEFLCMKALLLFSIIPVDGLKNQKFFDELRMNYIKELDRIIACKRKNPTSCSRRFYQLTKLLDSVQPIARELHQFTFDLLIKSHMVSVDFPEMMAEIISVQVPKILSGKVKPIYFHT
Assay: in vitro binding assay - hydroxyapatite method ([3H]-DHT competition)
Settings: concentration of unlabeled test compound at which 50% of the [3H]-DHT is still bound to MBP-ARC; 2 nM [3H]-DHT, 50 µg/ml MBP-ARC, three hours
Protocol: 1.9 The in vitro binding assay - hydroxyapatite method
800 mM NaCl, 10 % glycerol, 1mg/ml BSA and 2mM DTT to obtain a 100 l mixture solution.
mixture solution was incubated at 4 for 3 hours.
After incubation, BioGel HT (Bio-Rad Laboratories) was added to the solution and incubated on ice
for 15 minutes, during which vortexing was done every 5 minutes. The incubated solution was centrifuged
at 1,000 rpm for a minute and a supernatant was removed.
A wash buﬀer consisting of 40 mM Tris-HCl pH 7.6, 100 mM KCl, 1mM EDTA and 1mM EGTA and
cooled on ice was added to the precipitate by 1 ml and mixed. The produced solution was centrifuged
at 1,000 rpm and a supernatant was removed. This process was repeated three times.
The collected precipitate was suspended in 3 ml Aquasol (New England nuclear Corp.). Radioactivity
of the suspended solution in a scintillation vial (Perkin Elmer) was measured by a liquid scintillation
test compounds was regarded as IC50 of the test compound.

Structure (SMILES): Cc1c(-c2ccc(NC(=O)C(C)(C)C)cc2)nc2ccc(Cl)cn12 [T5853872]
- pIC50: 4.10
